In the supplement of paper PMC10307832:

Experiments:
Assay in all cases: relative viability (nuclei count vs DMSO), 5 days (fraction); higher = more cells survive
[1] = compound: C1/C(=C\C2=CC=CS2)/C(=O)/C(=C/C3=CC=CS3)/C1 + CC(C)C[C@H](NC(=O)[C@H](Cc1ccccc1)NC(=O)c1cnccn1)B(O)O [Bortezomib] (partner 0.002 µM)
How it was run: (§1)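 Values are medians from duplicate plates. Each reflects relative viability, defined as the nuclei count of treated wells over that of vehicle wells. Lung cancer cell lines in 1536-well plates were pin-tool dosed one day after seeding with one drug alone or with a fixed anchor-drug dose plus five library-drug doses (not always all listed) in √10 steps, then fixed, stained and imaged at 4× after 5 days.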

[2] = compound: C1=CC(=CC=C1C2=CC(=C(S2)NC(=O)N)C(=O)N)F [TPCA-1] + CC(C)C[C@H](NC(=O)[C@H](Cc1ccccc1)NC(=O)c1cnccn1)B(O)O [Bortezomib] (partner 0.002 µM)
How it was run: as §1

[3] = compound: C1=CC(=CC=C1C2=CC(=C(S2)NC(=O)N)C(=O)N)F [TPCA-1] + C[C@@H](Oc1cc(-c2cnn(C3CCNCC3)c2)cnc1N)c1c(Cl)ccc(F)c1Cl [Crizotinib] (partner 1 µM)
How it was run: as §1

[4] = compound: C1=CC(=CC=C1C2=CC(=C(S2)NC(=O)N)C(=O)N)F [TPCA-1] + Cc1nc(Nc2ncc(C(=O)Nc3c(C)cccc3Cl)s2)cc(N2CCN(CCO)CC2)n1 [Dasatinib] (partner 0.075 µM)
How it was run: as §1

Row | Cell Line | relative viability ([1]; first compound 0.2 µM) | relative viability ([1]; first compound 0.6325 µM) | relative viability ([1]; first compound 2 µM) | relative viability ([1]; first compound 6.325 µM) | relative viability ([1]; first compound 20 µM) | relative viability ([2]; first compound 0.04 µM) | relative viability ([2]; first compound 0.1265 µM) | relative viability ([2]; first compound 0.4 µM) | relative viability ([2]; first compound 1.265 µM) | relative viability ([2]; first compound 4 µM) | relative viability ([3]; first compound 0.04 µM) | relative viability ([3]; first compound 0.1265 µM) | relative viability ([3]; first compound 0.4 µM) | relative viability ([3]; first compound 1.265 µM) | relative viability ([3]; first compound 4 µM) | relative viability ([4]; first compound 0.04 µM) | relative viability ([4]; first compound 0.1265 µM) | relative viability ([4]; first compound 0.4 µM) | relative viability ([4]; first compound 1.265 µM) | relative viability ([4]; first compound 4 µM)
1 | NCI-H1666 | 0.724 | 0.67 | 0.643 | 0.559 | 0.666 | 0.808 | 0.807 | 0.996 | 0.767 | 0.8 | 0.894 | 0.971 | 0.977 | 0.918 | 0.993 | 0.842 | 0.829 | 0.828 | 0.805 | 0.677
2 | NCI-H2023 | 0.964 | 0.942 | 1.21 | 0.869 | 0.868 | 1.07 | 0.941 | 1.11 | 0.845 | 0.386 | 0.75 | 0.667 | 0.658 | 0.636 | 0.512 | 0.731 | 0.521 | 0.527 | 0.508 | 0.216
3 | NCI-H1755 | 1.01 | 0.897 | 1.03 | 0.853 | 0.928 | 0.948 | 0.9 | 1.05 | 0.881 | 0.832 | 0.83 | 0.772 | 0.922 | 0.831 | 0.48 | 0.499 | 0.424 | 0.396 | 0.31 | 0.285
4 | NCI-H23 | 1.17 | 1.05 | 0.953 | 0.983 | 1.01 | 1.12 | 0.935 | 0.909 | 1.11 | 0.512 | 0.582 | 0.503 | 0.515 | 0.441 | 0.341 | 1.04 | 0.711 | 0.879 | 0.758 | 0.402
5 | ABC-1 | 0.33 | 0.349 | 0.336 | 0.265 | 0.253 | 0.369 | 0.225 | 0.291 | 0.297 | 0.293 | 1.38 | 1.05 | 0.957 | 0.733 | 0.569 | 0.485 | 0.493 | 0.614 | 0.495 | 0.381
6 | 201T | 1.17 | 1.08 | 1.13 | 1.04 | 1.08 | 1.12 | 1.1 | 1.19 | 1.12 | 1.12 | 1.04 | 0.998 | 1.08 | 1.02 | 1.03 | 0.577 | 0.601 | 0.569 | 0.576 | 0.556
7 | NCI-H1734 | 1.03 | 0.953 | 0.906 | 0.805 | 0.881 | 1.02 | 0.816 | 1.12 | 0.938 | 0.554 | 0.706 | 0.584 | 0.704 | 0.642 | 0.575 | 0.508 | 0.421 | 0.492 | 0.455 | 0.41
8 | NCI-H520 | 0.575 | 0.763 | 0.601 | 0.401 | 0.533 | 0.82 | 0.607 | 0.717 | 0.453 | 0.252 | 0.882 | 0.737 | 0.795 | 0.566 | 0.544 | 0.219 | 0.187 | 0.223 | 0.18 | 0.176
9 | NCI-H1650 | 0.221 | 0.231 | 0.327 | 0.202 | 0.186 | 0.26 | 0.219 | 0.204 | 0.203 | 0.208 | 1.18 | 0.92 | 1.04 | 1.09 | 0.891 | 0.361 |  | 0.336 | 0.269 | 0.269
10 | NCI-H1355 | 1.21 | 1.2 | 1.21 | 1.1 | 1.14 | 1.25 | 1.09 | 1.15 | 1.01 | 0.984 | 1.1 | 1.03 | 1.11 | 0.977 | 0.712 | 0.836 | 0.652 | 0.716 | 0.599 | 0.519
11 | NCI-H1915 | 0.982 | 0.97 | 1.02 | 0.908 | 0.895 | 0.949 | 0.961 | 0.954 | 0.664 | 0.886 | 0.906 | 0.884 | 0.915 | 0.857 | 0.72 | 0.322 | 0.292 | 0.33 | 0.263 | 0.243
12 | BEN | 0.719 | 1.04 | 1.01 | 0.68 | 0.719 | 1.17 | 0.53 | 0.805 | 0.999 | 0.587 | 0.81 | 0.722 | 0.713 | 0.979 | 0.685 | 0.294 | 0.283 | 0.335 | 0.391 | 0.267
13 | NCI-H3122 | 1.04 | 1.02 | 0.997 | 1.03 | 0.932 | 1.09 | 0.983 | 1.08 | 1.01 | 0.975 | 0.281 | 0.268 | 0.278 | 0.291 | 0.223 | 1.01 | 0.828 | 0.866 | 0.851 | 0.517
14 | HOP-62 | 0.619 | 0.765 | 0.94 | 0.979 | 0.634 | 0.641 | 0.707 | 0.832 | 0.738 | 0.57 | 0.974 | 0.865 | 0.974 | 1.05 | 0.641 | 0.874 | 0.642 | 0.689 | 0.539 | 0.671
15 | HCC-366 | 1.03 | 1.09 | 1.07 | 0.893 | 1.07 | 1.07 | 0.94 | 1.13 | 0.92 | 0.647 | 0.562 | 0.644 | 0.588 | 0.472 | 0.258 | 0.729 | 0.55 | 0.664 | 0.539 | 0.233
16 | NCI-H2347 | 0.847 | 1 | 1.04 | 0.831 | 1.04 | 0.945 |  | 0.894 | 0.662 | 1.16 | 0.806 | 0.557 | 0.676 | 0.553 | 0.521 | 0.296 | 0.277 | 0.26 | 0.258 | 0.262
